Results as given in US20070166547A1, “Use of a layer consisting of hydrophobic linear, or two-dimensional polycyclic aromatics as a barrier layer or an encapsulation and electric components constructed with a layer of this type and comprising organic polymers” (priority 2003, published 2007).

Legend:
[1] = test system: embyronic fibroblasts of mouse NIH-3T3; assay: Endocellular pHi of fibroblasts by microspectrofluorimetry (FDA, BCECF-AM); assay type: cell-based; conditions: for rise of pHi: fibroblasts in an attached spread state; for increase of pHi: 20 minutes
Description: The effect of the compounds according to the invention on the endocellular pH, embyronic fibroblasts of mouse NIH-3T3 supplied by the All-Russian Collection of Cellular Cultures of the Institute of Cytology of the Russian Academy of Sciences St. Petersburg was investigated. The cells were grown in the DMEM (Sigma) medium containing 2.2 g/l of sodium bicarbonate with addition of 80.0 mkg/ml of gentamicin and 10.0% embryonal veal serum at a temperature of 37° C. in an atmosphere containing 5.0% of carbon dioxide. For these experiments use was also made of a medium buffer with 5.0 mM of HEPES and 15.0 mM of sodium bicarbonate without serum or with addition of 5.0% serum. The cells were calculated with the help of a hemocytometer. A share of the dead cells was determined by colouring trypan blue.
The measurements of the endocellular pHi were carried out with the help of colorants FDA (Sigma) and BCECF-AM (Calbiochem) on a microspectrofluorimeter by a standard technique (Koshevoy Yu. V., Akatov V. S., Grobova M. E. Microspectrofluorimeter for measuring endocellular pH (micro pH)”. Devices and equipment for studies in the field of physical-and-chemical biology and biotechnology. Pushchino, 1990. P. 8-14).
The cells at a temperature of 37° C. were colored within 5 minutes with 5.0 mkM PDA that before the colouring was prepared from a 10.0 mM solution in acetone by dilution for 30 minutes in a phosphatic buffer to 0.1 mM or 2.0 mkM 1.0 mM solution BCECF-AM in DMSO.
The two-wave method of determining pHi was used based on the ratio intensities of fluorescence of the cells on two wavelengths (Akatov V. S. et all), “Endocellular pH and substrate dependence of proliferation of fibroblasts of Chinese hamster, Cytology, 1991, 33 (7), p. 86-94). The fluorescence was excited by light at λ=490 nm, the emission was recorded simultaneously with two photomultipliers on wavelengths λ=535 nm and λ=570 nm. The K-ratio of the fluorescence on two wavelengths was determined with a deduction of the background fluorescence of the medium near the investigated cells for 40-60 individual cells, which are then averaged taking into account the measurement error. A thermostatically controlled table was used that allowed measurements to be conducted at a temperature of 37° C. An account was taken for the photodynamic damage of the pigmented cells during-long-time continuous illumination by excited light. The readings were taken from a section of the preparation exposed to light for not more than 5 minutes.
The calibration curves for determining the absolute pHi values by magnitude K were constructed using the Thomas technique (Thomas J. A., Bushbaum R. N., Zimniak A. w Racker E. “Intracellular pH measurements in Ehrlich ascites tumor cells utilizing spectroscopic probe generated in situ”, Biochemistry, 1979, v. 18, p. 2210-2218), for which case the pigmented cells treated for 5-10 minutes with carboxyacidic nigericyn (Calbiochem) at a concentration of 5-10 mkg/ml was placed in a solution with a high content of potassium—130 mM KCl, 1.0 mM MgCl2, 20.0 mM of HEPES) and with pH values from 6.2 to 7.6. The K values were measured in the media with different pH assuming that pHi of the cells equals to the pH of the medium due to the action of nigericyn, which exchanges potassium ions for protons and at a high content of potassium in the medium counterbalances the pH of the medium and cells. Calibration curves were used based on the fluorescence of same medium with addition of 5.0 mkM of fluorescence or BCECF were used to the control the stability of the of the instrument readings.
The correctness of the technique was confirmed in the experiments on measurements of pH values of cells treated with protonofor monencine raising pH of the cells due to replacement of sodium ions by protons, and by determining the dependence of the change of pHi on the change of the pH of the medium. […]

[2] = test system: adenosine-sensitive receptors of erythrocytes; assay: Chemiluminescence study of bonding to erythrocytes and competition with adenosine; assay type: binding, mice of line BALB/c; conditions: 37° C. vs 4° C.; 10^−7 to 10^−5 M
Description: The interaction of compounds 2, 15, 21, 37 according to the invention with adenosine-sensitive receptors of erythrocytes of female mice of line BALB/c of an age of 8-12 months was investigated.
The dependence of the chemiluminescence intensity of the compounds according to the invention in an alkaline solution of 0.1N NaOH was determined in the presence of hydrogen peroxide being an initiator of chemiluminescence. The chemiluminescence was studied using the <<LKB>> chemiluminometer.
The erythrocytes of peripheral blood of the mice at first were washed three times by a normal physiological solution with centrifuging and then diluted in the Henks solution without glucose by 10 volumes of distilled water immediately used in the experiment.
At the first stage of the experiments the washed erythrocytes were incubated at a temperature of 37° C. or at 4° C. with solutions of the compounds according to the invention at a concentration of 10^−7 to 10^−5 M for 5-30 minutes, then washed by a normal physiological solution with repeated centrifuging in the cold. The obtained suspension of erythrocytes with the bound compounds according to the invention was placed in 0.1N solution of NaOH with addition of hydrogen peroxide at a final concentration of 10^−7 M. The chemiluminescence intensity was measured. A suspension of erythrocytes without compounds according to the invention was used as a control medium.
At the second stage of the experiments the washed erythrocytes were incubated at a temperature of 37° C. with solutions of the compounds according to the invention at a concentration of 10^−11 to 10^−8M during
5-30 minutes, then washed twice with a normal physiological solution by centrifuging in the cold, the obtained suspension was mixed with an adenosine solution at a concentration of 10^−6 to 10^−4 and incubated for 15 minutes, then washed twice with a normal physiological solution with centrifuging in the cold. The obtained suspension of erythrocytes with the compounds according to the invention was placed in 0.1N solution of NaOH with addition of hydrogen peroxide in the final concentration of 10^−7 M. The chemiluminescence intensity was measured.

[3] = medium with 10.0% blood serum, 0.02 mkg/ml, suspension
[4] = medium with 10.0% blood serum, 0.2 mkg/ml, suspension
[5] = medium with 10.0% blood serum, 2.0 mkg/ml, suspension
[6] = medium with 10.0% blood serum, 20.0 mkg/ml, suspension
[7] = medium without blood serum, 0.02 mkg/ml
[8] = medium without blood serum, 0.2 mkg/ml
[9] = medium without blood serum, 2.0 mkg/ml
[10] = medium without blood serum, 20.0 mkg/ml
[11] = medium without blood serum, 200 mkg/ml
[12] = medium without blood serum, 1000 mkg/ml

Compound	rise of pHi ([1]; 2.0 mkg/ml) [unit pHi]	rise of pHi ([1]; 20.0 mkg/ml) [unit pHi]	increase of pHi [1, 3]	increase of pHi [1, 4] [unit pH]	increase of pHi [1, 5] [unit pH]	increase of pHi [1, 6]	increase of pHi [1, 7]	increase of pHi [1, 8]	increase of pHi [1, 9] [unit pHi]	increase of pHi [1, 10] [unit pHi]	increase of pHi [1, 11]	increase of pHi [1, 12]	bond with the erythrocytes: dependence on incubation temperature [2]
Nc1cccc2c(=O)[nH][nH]c(=O)c12.[Na] [Compound 15, sodium salt of 5-amino-benzo[d]-3H-pyridazine-1,4-dione]	0.10	0.07	do not initiate a change of pH	0.1	0.12	do not initiate a change of pH	no effect was found	no effect was found	0.08	0.08	no effect was found	no effect was found	does not depend on the temperature
Nc1ncc2c(=O)[nH][nH]c(=O)c2n1 [Compound 36, 2-amino-pyrimido[4,5-d]-6H-pyridazine-5,8-dione]	0.10	0.07	do not initiate a change of pH	0.1	0.12	do not initiate a change of pH	no effect was found	no effect was found	0.08	0.08	no effect was found	no effect was found	
O=c1[nH][nH]c(=O)c2c(Br)ncnc12.[K] [Compound 37, potassium salt of 4-bromine-pyrimido[4,5-D]-6H-pyridazine-5,8-dione]													does not depend on the temperature
Nc1cnc2c(=O)n([C@@H]3O[C@H](CO)[C@@H](O)[C@H]3O)[nH]c(=O)c2n1.[Na] [Compound 21, sodium salt of 3-amino-7-(β-D-ribofuranosile)pyrazine[2,3-d]-6H-pyridazine-5,8-dione]													does not depend on the temperature
O=c1[nH]n([C@@H]2O[C@H](CO)[C@@H](O)[C@H]2O)c(=O)c2nc(O)cnc12.[Na].[Na] [Compound 23, disodium salt of 2-hydroxy-7-(β-D-ribofuranosile)pyrazine[2,3-Cl]-6H-pyridazine-5,8-dione]	0.10	0.07	do not initiate a change of pH	0.1	0.12	do not initiate a change of pH	no effect was found	no effect was found	0.08	0.08	no effect was found	no effect was found	
Nc1ccnc2c(=O)n([C@@H]3O[C@H](CO)[C@@H](O)[C@H]3O)[nH]c(=O)c12 [Compound 2, 4-amino-7-(β-D-ribofuranosile)pyrido[2,3-d]-6H-pyridazine-5,8-dione]													does not depend on the temperature
